# From patent US8637484B2, “Modulation of growth hormone receptor expression and insulin-like growth factor expression” (Antisense Therapeutic Limited, priority 2003, dated 2014)
# Assays:
# [1] = tested on: serum insulin-like growth factor-I; assay: Serum IGF-I by radioimmunoassay, 1 week pilot study in Balb/C(a) mice; type: in vivo, mouse; details: for % IGF-I reduction: 30 mg/kg once every 2 days, serum IGF-I at day 7 compared to saline control at day 7
# Experimental: Forty male Balb/C(a) mice weighing 9 to 10 g were placed into cages, 4 animals per cage, and allowed to assimilate into their environment with new littermates ˜1 week prior (Day −7) to the commencement of 1 week study. Mice of this age would be at their maximum growth rate. Their body weights were measured and recorded every second day during this period. When mice weighed 11 g (day −2), a blood sample was collected under anesthesia as described below, and a serum IGF-I assay was performed to determine pre-treatment values and to aid in the assigning of mice to treatment groups in order to reduce animal variability. To obtain the blood sample, the animals were anaesthetized with pentobarbital (50 mg/kg i.p.) and non-fasting blood samples collected exactly 5 minutes later from the retrobulbar plexus through heparinized capillary tubes under light ether anesthesia. The 40 animals were placed into five groups with each group having a similar weight average and similar IGF-I average concentration for the trial.
# Animals (n=8/group) were designated to the following five treatment groups:
# Saline, antisense, mismatch control and octreotide samples were prepared, and coded for blinding. Animals were given a subcutaneous dose of saline every second day, and mismatch control or antisense with administration on days 0, 2, 4, 6. Animals were given twice daily doses of 25 μg octreotide. Animals were housed 4 per cage, for the duration of one week. They had access to a pre-determined quantity of standard mouse food and water at all times throughout the experiment. They were housed in a quiet, temperature- and humidity-maintained environment for the entirety of the study. At day 0 and before treatment on each day or second day, the animals had their body weight and food intake measured, enabling the correct dose of agent to be administered. The animals were monitored closely for any changes in fur, skin, eye, locomotion or other changes in behavior. No problems were observed. Every second day from day −7 to day 7 body weight and food intake were measured.
# On day 7, one day after the last dose of antisense, and/or after the last octreotide dose, the animals were anaesthetized with pentobarbital (50 mg/kg i.p.) and non-fasting blood samples collected exactly 5 minutes later from the retrobulbar plexus through heparinized capillary tubes under light ether anesthesia (as on day −7 and 0).
# At day −2 and day 7, serum IGF-I measurement was done by radioimmunoassay. Serum IGF-I level is the most widely used measure of growth hormone biological activity in human therapy. It is used to measure the efficacy of growth hormone antagonist treatments like Trovert, which block cells' responsiveness to excess growth hormone, and dopamine agonists and octreotide somatostatin […] drugs that block growth hormone secretion from the pituitary.
# [2] = tested on: serum insulin-like growth factor-I; assay: as above; type: in vivo, mouse
# [3] = tested on: serum insulin-like growth factor-I; details: patients with acromegaly; cited from earlier work
# sIGF-1 = details: cited from earlier work
# serum IGF-I [4] = details: high doses, 12 week study, cited from earlier work
# growth hormone receptor = assay: [125I] hGH specific binding assay on liver microsomal membranes of treated mice; type: in vivo, mouse
# Experimental: Specific binding assays were carried out with liver tissue using iodinated human growth hormone [^125I] hGH.
# Microsomal membrane preparations were obtained as follows. 400 mg of tissue powder was homogenized in cold homogenizing buffer (50 mM Tris/HCl, 250 mM sucrose, pH 7.4). This was centrifuged at 2000 rpm for 10 min at 3° C. and the supernatant was saved. This was centrifuged again at 15,000 rpm for 20 min. Pellets were resuspended in 0.5 ml of RRA buffer with inhibitor (50 mM Tris, 20 mM MgC12, pH 7.4). Microsomal preparation samples were stored at −80° C. until the specific binding assay.
# The [^125I] hGH specific binding assay was done as follows. Four glass tubes were set up for each sample, two for (−), two for (+). Different sample and solutions were added in each tube as follows (i) 0.2 ml RRA buffer (50 mM Tris, 20 mM MgCl2, 0.1% BSA, pH 7.4); (ii) 0.1 ml membrane (1/2 or 1/4 dilution); (iii) 0.1 ml bGH (10 μg/ml) for the (+) tube or 0.1 ml RRA buffer for the (−) tube; and (iv) 0.1 ml [^125I]-hGH tracer.
# Samples were incubated at 4° C. with shaking overnight. The reaction was stopped with 2.5 ml of cold RRA, and the sample centrifuged at 2800 rpm for 25 min at 4° C. Supernatant was aspirated and pellets counted using the γ-counter. The specific binding capacity was calculated as: CPM(−)-CPM(+) Protein content of the microsomal samples was determined by the BCA protein assay.
# serum IGF-I [5] = assay: Serum IGF-I, two-week mouse study; type: in vivo; details: for % decrease relative to 3 mg/kg ISIS 261303: day 14
# Experimental: (§1) A two-week study was done in similar fashion to the one-week study in Example 18, this time using ISIS 227446 at doses of 3, 5, 10, 20 and 30 mg/kg. The mismatch control was given at the same doses. Mice were treated with antisense compound or saline every other day for 14 days.
# P-values were determined by t-test.
# [6] = tested on: growth hormone receptor mRNA; assay: Growth hormone receptor mRNA levels in liver, two-week mouse study; type: in vivo; details: 30 mg/kg
# Experimental: as §1
# Growth hormone receptor mRNA levels in liver tissue samples from treated and untreated mice in this two-week study were assayed. The growth hormone receptor antisense inhibitor ISIS 227446 reduced growth hormone receptor mRNA levels in liver after the two-week study by 50% at the 20 mg/kg dose relative to saline control (p<0.001). The 30 mg/kg dose of ISIS 227446 yielded a 53% decrease in growth hormone receptor mRNA (p<0.0001). The mismatch control oligonucleotide ISIS 261303 (SEQ ID NO: 267), at 30 mg/kg, reduced growth hormone receptor mRNA levels by approximately 3%.
# [7] = 30 mg/kg every second day for one week, liver membranes
substance,measurement,setting,value
octreotide,effect on serum IGF-I levels at day 7,[1]; 2 doses per day at 25 μg each,no effect
same,IGF-I (ng/ml) Day 7,[2]; 25 μg twice per day,114.34 ± 41.36 ng/mL
same,IGF-I (ng/ml) Day −2,[2]; pre-treatment value of the group given 25 μg/kg twice per day,199.72 ± 44.47 ng/mL
same,patients in whom treatment is effective,[3],60-65%
same,reduction of sIGF-1,"sIGF-1; 5000 μg/day sc, maximally tolerated doses, 15 month study",51%
same,ocular disease,sIGF-1; vs placebo of 42%,27%
same,reduction of serum IGF-I,serum IGF-I [4]; 11 patients,45%
same,reduction of glomerular filtration rate relative to placebo,serum IGF-I [4],22-33%
"ISIS 261303: negative control oligonucleotide, SEQ ID NO: 267, 8-base mismatch to ISIS 227446 (AGAGAGCTACCTAACTAACA; chemistry not given here) [reference compound]",% IGF-I reduction,[1],21%
same,% IGF-I reduction,[1]; listed as Mismatch,20.98%
same,IGF-I (ng/ml) Day 7,"[1]; 30 mg/kg sc once every 2 days (days 0, 2, 4, 6)",81.1 ± 19.16 ng/mL
same,IGF-I (ng/ml) Day −2,[1]; pre-treatment value of the group given 30 mg/kg sc once every 2 days,184.87 ± 55.6 ng/mL
same,Specific binding/mg protein (cpm) ¼ dilution,growth hormone receptor; [7],8431 ± 2663 cpm
same,Specific binding/mg protein (cpm) ½ dilution,growth hormone receptor; [7],7090 ± 1877 cpm
same,"growth hormone receptor levels (growth hormone binding activity), % of control (saline) group",growth hormone receptor; 30 mg/kg sc every second day for one week,no effect
same,Day 14 serum IGF-I,serum IGF-I [5]; 3 mg/kg every other day for 14 days,184 ng/mL
same,% decrease relative to 3 mg/kg ISIS 261303,serum IGF-I [5]; 3 mg/kg,0%
same,Day 14 serum IGF-I,serum IGF-I [5]; 5 mg/kg every other day for 14 days,186 ng/mL
same,% decrease relative to 3 mg/kg ISIS 261303,serum IGF-I [5]; 5 mg/kg,0%
same,Day 14 serum IGF-I,serum IGF-I [5]; 10 mg/kg every other day for 14 days,174 ng/mL
same,% decrease relative to 3 mg/kg ISIS 261303,serum IGF-I [5]; 10 mg/kg,5%
same,Day 14 serum IGF-I,serum IGF-I [5]; 20 mg/kg every other day for 14 days,164 ng/mL
same,% decrease relative to 3 mg/kg ISIS 261303,serum IGF-I [5]; 20 mg/kg,11%
same,Day 14 serum IGF-I,serum IGF-I [5]; 30 mg/kg every other day for 14 days,130 ng/mL
same,% decrease relative to 3 mg/kg ISIS 261303,serum IGF-I [5]; 30 mg/kg,29%
same,decrease in growth hormone receptor mRNA in liver,[6],approximately 3%
